We go through 26 compounds from patent US12410160B2 (Gilead Sciences, Inc., priority 2021, dated 2025).

For one experiment, the target named is human KHK-C (Homo sapiens (Human), UniProt P50053). Kind of experiment: KHK Biochemical Assay (IC50), ADP-Glo, KHK-C. Particulars: average of at least two separate assays. The method in brief:
(§1)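 ADP-Glo luminescence measured ADP made over a 4 h room-temperature reaction of ATP plus fructose, started after 30 min compound–enzyme pre-incubation. Buffer: 50 mM Hepes pH 7.4, 140 mM KCl, 5 mM MgCl2, 0.01% Triton-X. Enzyme was His-tagged, BL21 (DE3)-expressed, Ni-NTA-purified; compounds in 1:3 DMSO dilution series.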

A further experiment concerns the target human KHK-A (Homo sapiens (Human), UniProt P50053). The experiment can be described thus: KHK Biochemical Assay (IC50), ADP-Glo, KHK-A. Particulars: average of at least two separate assays. The essentials:
as §1
(In general: ADP-Glo turns the ADP formed in a reaction into a luminescent signal.)

The target of experiment [1] is KHK-C expressed in NRK-52E cells (Homo sapiens (Human), UniProt P50053). The experiment can be described thus: KHK-C Cell-based Assay (EC50), NRK CTG, fructose-mediated ATP-depletion.
KHK-C expressed in NRK-52E cells, sequence (P50053 whole entry): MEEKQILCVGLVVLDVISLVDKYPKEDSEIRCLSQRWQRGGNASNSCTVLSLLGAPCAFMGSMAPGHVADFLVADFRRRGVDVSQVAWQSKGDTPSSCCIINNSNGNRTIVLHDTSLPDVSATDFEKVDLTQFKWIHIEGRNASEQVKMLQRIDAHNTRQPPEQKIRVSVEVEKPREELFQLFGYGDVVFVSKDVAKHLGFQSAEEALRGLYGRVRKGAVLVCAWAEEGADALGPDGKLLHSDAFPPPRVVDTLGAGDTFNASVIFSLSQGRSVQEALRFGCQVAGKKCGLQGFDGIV
Method: Compounds were tested in a high-throughput 384-well assay format for their ability to attenuate fructose-mediated ATP-depletion in Normal Rat Kidney epithelial cells (NRK-52E) using the Cell-Titer Glo (CTG) assay, which measures cellular ATP levels based on luminescence signal by using the luciferase-luciferin system. Compounds were serially diluted (1:3) in DMSO.
The plates were incubated at 37° C., 5% CO2 for one day. Cells were then transduced on day 2 with 200 MOI of Adenovirus (VQAd KHKC C-(K)-DYK ViraQuest Inc.) using the same medium and method as day-1 to induce KHK-C expression in the cells. Cells were incubated at 37° C., 5% CO2 for one day. On day-3, the medium was changed to DMEM medium (Corning, Catalog #10-014-CM) with 0.5% FBS and Penicillin-Streptomycin after washing the cells twice with sterile PBS on the BioTEK EL406 washer and dispenser. Test compounds were then diluted 200-fold into the assay plates using the BioMek FX and were incubated for 1 hour at 37° C., 5% CO2. 25 mM (final concentration) of fructose was then dispensed into the plates using the BioTEK EL406 dispenser and the plates were incubated at 37° C., 5% CO2 for 48 hours before addition of CTG reagent and measurement of luminescence signal.

SMILES strings stand for the structures.

human KHK-A, sequence (P50053 other isoform, or with tags, fused parts or gaps): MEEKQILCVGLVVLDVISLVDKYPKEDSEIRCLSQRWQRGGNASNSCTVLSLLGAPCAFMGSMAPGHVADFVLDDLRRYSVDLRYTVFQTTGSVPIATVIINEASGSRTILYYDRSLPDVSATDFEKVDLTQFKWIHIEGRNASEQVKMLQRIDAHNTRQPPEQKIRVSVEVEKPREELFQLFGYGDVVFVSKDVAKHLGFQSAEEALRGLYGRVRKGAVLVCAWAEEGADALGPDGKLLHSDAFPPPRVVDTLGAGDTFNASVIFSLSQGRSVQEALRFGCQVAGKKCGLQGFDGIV
human KHK-C, sequence (P50053 whole entry): as the sequence (P50053 whole entry) above

As to `C[C@H]1CCN1c1nc2c(c(-c3ccc(C(N)=O)c(C(F)(F)F)c3)n1)CCC2` [Example 316, (S)-4-(2-(2-methylazetidin-1-yl)-6,7-dihydro-5H-cyclopenta[d]pyrimidin-4-yl)-2-(trifluoromethyl)benzamide], the 50% inhibitory concentration (IC50) stood at 42.9 nM at human KHK-C (ADP-Glo) and 19 nM on human KHK-A (ADP-Glo). Moreover, the concentration giving a half-maximal response (EC50) in experiment [1] came out at 35 nM.

`CCOc1cc(-c2nc(N3CC[C@@H]3C)nc3c2CCC3)ccc1C(N)=O` [Example 319, (S)-2-ethoxy-4-(2-(2-methylazetidin-1-yl)-6,7-dihydro-5H-cyclopenta[d]pyrimidin-4-yl)benzamide]: the half-maximal inhibitory concentration (IC50) at human KHK-C (ADP-Glo) was 20.9 nM; against human KHK-A (ADP-Glo) it was 25 nM. In experiment [1], this compound came in with a concentration for a half-maximal effect (EC50) of 37.3 nM.

Consider `C[C@H]1CCN1c1nc2c(c(-c3ccc(C(N)=O)c(NS(C)(=O)=O)c3)n1)CCC2` [Example 320, (S)-4-(2-(2-methylazetidin-1-yl)-6,7-dihydro-5H-cyclopenta[d]pyrimidin-4-yl)-2-(methylsulfonamido)benzamide], for which the IC50 was 244 nM at human KHK-C (ADP-Glo) and 210 nM on human KHK-A (ADP-Glo). For the same compound, the EC50 in experiment [1] was found to be 638 nM.

As to `C[C@H]1CCN1c1nc(-c2cccc(S(N)(=O)=O)c2)c2c(n1)C(F)(F)CC2` [Example 321, (S)-3-(7,7-difluoro-2-(2-methylazetidin-1-yl)-6,7-dihydro-5H-cyclopenta[d]pyrimidin-4-yl)benzenesulfonamide], the half-maximal inhibitory concentration (IC50) against human KHK-C (ADP-Glo) amounted to 4.4 nM; on human KHK-A (ADP-Glo), 4.8 nM. Besides, the EC50 in experiment [1] was determined as 7.3 nM.

For the compound `C[C@H]1CCN1c1nc(-c2cccc(CNS(C)(=O)=O)c2)c2c(n1)C(F)(F)CC2` [Example 323, (S)—N-(3-(7,7-difluoro-2-(2-methylazetidin-1-yl)-6,7-dihydro-5H-cyclopenta[d]pyrimidin-4-yl)benzyl)methanesulfonamide], the concentration for half-maximal inhibition (IC50) against human KHK-C (ADP-Glo) turned out to be 4.2 nM; on human KHK-A (ADP-Glo), 4.7 nM. In experiment [1], this compound yielded an EC50 of 16.1 nM.

For `CNCc1cccc(-c2nc(N3CC[C@@H]3C)nc3c2CCC3)c1` [Example 330, N-methyl-1-[3-[2-[(2S)-2-methylazetidin-1-yl]-6,7-dihydro-5H-cyclopenta[d]pyrimidin-4-yl]phenyl]methanamine], the half-maximal inhibitory concentration (IC50) against human KHK-C (ADP-Glo) is 19.2 nM; against human KHK-A (ADP-Glo), 22.4 nM. Moreover, the EC50 in experiment [1] was determined as 13.1 nM.

On to `C[C@H]1CCN1c1nc(-c2ccccc2)c2c(n1)[C@@H]1C[C@@H]1C2` [Example 333, (5aR,6aR)-2-((S)-2-methylazetidin-1-yl)-4-phenyl-5,5a,6,6a-tetrahydrocyclopropa[4,5]cyclopenta[1,2-d]pyrimidine], for which the IC50 at human KHK-C (ADP-Glo) and at human KHK-A (ADP-Glo) was 1310 nM each time. The concentration for a half-maximal effect (EC50) in experiment [1] is 1130 nM.

`C[C@H]1CCN1c1nc2c(c(-c3cccc(CN4CCCCC4)c3)n1)CCC2` [Example 345, 2-[(2S)-2-methylazetidin-1-yl]-4-[3-(1-piperidylmethyl)phenyl]-6,7-dihydro-5H-cyclopenta[d]pyrimidine]: the IC50 was found to be 45.1 nM at human KHK-C (ADP-Glo) and 12.6 nM against human KHK-A (ADP-Glo). The EC50 in experiment [1] was found to be 53.7 nM.

Take `C[C@H]1CCN1c1nc2c(c(-c3cccc(CN(C)C)c3)n1)CCC2` [Example 346, N,N-dimethyl-1-[3-[2-[(2S)-2-methylazetidin-1-yl]-6,7-dihydro-5H-cyclopenta[d]pyrimidin-4-yl]phenyl]methanamine]: the IC50 worked out at 14.7 nM against human KHK-C (ADP-Glo) and 16.7 nM against human KHK-A (ADP-Glo). A half-maximal effect in experiment [1] (EC50) was put at 27.5 nM.

`C[C@H]1CCN1c1nc2c(c(-c3cccc(CN4CCCC4)c3)n1)CCC2` [Example 348, 2-[(2S)-2-methylazetidin-1-yl]-4-[3-(pyrrolidin-1-ylmethyl)phenyl]-6,7-dihydro-5H-cyclopenta[d]pyrimidine]: the IC50 at human KHK-C (ADP-Glo) worked out at 22.7 nM; on human KHK-A (ADP-Glo) it was 24.2 nM. In experiment [1], this compound yielded an EC50 of 35.1 nM.

For `C[C@H]1CCN1c1nc2c(c(-c3cccc(CN4CCOCC4)c3)n1)CCC2` [Example 349, 4-[[3-[2-[(2S)-2-methylazetidin-1-yl]-6,7-dihydro-5H-cyclopenta[d]pyrimidin-4-yl]phenyl]methyl]morpholine], the IC50 amounted to 90.6 nM at human KHK-C (ADP-Glo) and 79.3 nM against human KHK-A (ADP-Glo). The compound also registered a half-maximal effective concentration (EC50) in experiment [1] of 305 nM.

Take `C[C@H]1CCN1c1nc2c(c(-c3cccc(CN4CC(O)C4)c3)n1)CCC2` [Example 350, 1-[[3-[2-[(2S)-2-methylazetidin-1-yl]-6,7-dihydro-5H-cyclopenta[d]pyrimidin-4-yl]phenyl]methyl]azetidin-3-ol]: the IC50 against human KHK-C (ADP-Glo) came out at 19.3 nM; on human KHK-A (ADP-Glo) it was 16.8 nM. This compound also yielded an EC50 in experiment [1] of 14 nM.

As for `CC(=O)Nc1ccc(-c2nc(N3CC[C@@H]3C)nc3c2CCC3)cc1` [Example 355, N-[4-[2-[(2S)-2-methylazetidin-1-yl]-6,7-dihydro-5H-cyclopenta[d]pyrimidin-4-yl]phenyl]acetamide], the half-maximal inhibitory concentration (IC50) came out at 72.7 nM at human KHK-C (ADP-Glo) and 33.3 nM on human KHK-A (ADP-Glo). In addition, a half-maximal response in experiment [1] (EC50) required 92.4 nM.

As to `C[C@H]1CCN1c1nc2c(c(-c3ccc(CN4CC(O)C4)cc3)n1)CCC2` [Example 365, 1-[[4-[2-[(2S)-2-methylazetidin-1-yl]-6,7-dihydro-5H-cyclopenta[d]pyrimidin-4-yl]phenyl]methyl]azetidin-3-ol], the half-inhibitory concentration (IC50) at human KHK-C (ADP-Glo) turned out to be 19 nM; on human KHK-A (ADP-Glo), 27.2 nM. Further, the midpoint of the response in experiment [1], the EC50, lay at 29.3 nM.

With `C[C@H]1CCN1c1nc2c(c(-c3ccc(CN4CCC4)cc3)n1)CCC2` [Example 366, 4-[4-(azetidin-1-ylmethyl)phenyl]-2-[(2S)-2-methylazetidin-1-yl]-6,7-dihydro-5H-cyclopenta[d]pyrimidine], the IC50 at human KHK-C (ADP-Glo) came to 86.5 nM; on human KHK-A (ADP-Glo), 54 nM. The compound further had an EC50 in experiment [1] of 75.4 nM.

Consider `C[C@H]1CCN1c1nc2c(c(-c3ccc(CO)c(F)c3)n1)CCC2` [Example 370, [2-fluoro-4-[2-[(2S)-2-methylazetidin-1-yl]-6,7-dihydro-5H-cyclopenta[d]pyrimidin-4-yl]phenyl]methanol], for which the values for the IC50 against human KHK-C (ADP-Glo) and against human KHK-A (ADP-Glo) were 81.7 nM and 76.3 nM, respectively. The same compound returned a half-maximal effective concentration (EC50) in experiment [1] of 117 nM.

For the compound `C[C@H]1CCN1c1nc2c(c(-c3ccc(CO)cc3)n1)CCC2` [Example 374, [4-[2-[(2S)-2-methylazetidin-1-yl]-6,7-dihydro-5H-cyclopenta[d]pyrimidin-4-yl]phenyl]methanol], the IC50 on human KHK-C (ADP-Glo) was 40.4 nM; at human KHK-A (ADP-Glo), 47.8 nM. Also, in experiment [1], the EC50 was 73.5 nM.

Take `C[C@H]1CCN1c1nc2c(c(-c3ccc(CO)s3)n1)CCC2` [Example 375, [5-[2-[(2S)-2-methylazetidin-1-yl]-6,7-dihydro-5H-cyclopenta[d]pyrimidin-4-yl]-2-thienyl]methanol]: the IC50 at human KHK-C (ADP-Glo) came to 18.2 nM; on human KHK-A (ADP-Glo), 30.3 nM. This compound also returned an EC50 in experiment [1] of 84 nM.

For `C[C@H]1CCN1c1nc2c(c(-c3ccc(C(C)(C)O)s3)n1)CCC2` [Example 376, 2-[5-[2-[(2S)-2-methylazetidin-1-yl]-6,7-dihydro-5H-cyclopenta[d]pyrimidin-4-yl]-2-thienyl]propan-2-ol], the 50% inhibitory concentration (IC50) against human KHK-C (ADP-Glo) was determined as 27.9 nM; against human KHK-A (ADP-Glo) it was 52.3 nM. In experiment [1], this compound displayed an EC50 of 37.3 nM.

Regarding `C[C@H]1[C@H](O)CN1c1nc2c(c(-c3ccc(CNS(C)(=O)=O)s3)n1)CCC2` [Example 377, N-[[5-[2-[(2S,3R)-3-hydroxy-2-methyl-azetidin-1-yl]-6,7-dihydro-5H-cyclopenta[d]pyrimidin-4-yl]-2-thienyl]methyl]methanesulfonamide], the results for the IC50 at human KHK-C (ADP-Glo) and at human KHK-A (ADP-Glo) were 21.1 nM and 26.9 nM, respectively. In experiment [1], this compound gave an EC50 of 92.9 nM.

In the case of `C[C@H]1CCN1c1nc2c(c(-c3cc4c(=O)[nH]ccc4s3)n1)CCC2` [Example 384, 2-[2-[(2S)-2-methylazetidin-1-yl]-6,7-dihydro-5H-cyclopenta[d]pyrimidin-4-yl]-5H-thieno[3,2-c]pyridin-4-one], the results for the IC50 at human KHK-C (ADP-Glo) and at human KHK-A (ADP-Glo) were 14.7 nM and 2.9 nM, respectively. Also, in experiment [1], the EC50 was 19.7 nM.

For `Cc1nc2cc(-c3nc(N4CC[C@@H]4C)nc4c3CCC4)ccc2c(=O)[nH]1` [Example 387, 2-methyl-7-[2-[(2S)-2-methylazetidin-1-yl]-6,7-dihydro-5H-cyclopenta[d]pyrimidin-4-yl]-3H-quinazolin-4-one], the values for the IC50 at human KHK-C (ADP-Glo) and against human KHK-A (ADP-Glo) were 9.9 nM and 5.6 nM, respectively. The compound also showed an EC50 in experiment [1] of 19.6 nM.

`C[C@H]1[C@H](O)CN1c1nc2c(c(-c3ccc4cnc(O)cc4c3)n1)CCC2` [Example 388, 6-[2-[(2S,3R)-3-hydroxy-2-methyl-azetidin-1-yl]-6,7-dihydro-5H-cyclopenta[d]pyrimidin-4-yl]isoquinolin-3-ol]: the half-inhibitory concentration (IC50) came out at 81.3 nM on human KHK-C (ADP-Glo) and 87.7 nM on human KHK-A (ADP-Glo). In experiment [1], the midpoint of the response, the EC50, lay at 403 nM.

Regarding `C[C@H]1CCN1c1nc2c(c(-c3nc4cc(F)ccc4n3C)n1)CCC2` [Example 390, 5-fluoro-1-methyl-2-[2-[(2S)-2-methylazetidin-1-yl]-6,7-dihydro-5H-cyclopenta[d]pyrimidin-4-yl]benzimidazole], the 50% inhibitory concentration (IC50) at human KHK-C (ADP-Glo) came to 2480 nM; at human KHK-A (ADP-Glo) it was 4220 nM. Further, the EC50 in experiment [1] was found to be 3330 nM.

`C[C@H]1CCN1c1nc2c(c(-c3nc4ccccc4n3C)n1)CCC2` [Example 391, 1-methyl-2-[2-[(2S)-2-methylazetidin-1-yl]-6,7-dihydro-5H-cyclopenta[d]pyrimidin-4-yl]benzimidazole]: the half-inhibitory concentration (IC50) against human KHK-C (ADP-Glo) was determined as 915 nM; at human KHK-A (ADP-Glo) it was 2190 nM. This compound displayed an EC50 in experiment [1] of 1810 nM.

For `C[C@H]1CCN1c1nc(-c2ccc(C(N)=O)cc2)c2[nH]ncc2n1` [Example 396, (S)-4-(5-(2-methylazetidin-1-yl)-1H-pyrazolo[4,3-d]pyrimidin-7-yl)benzamide], the IC50 against human KHK-C worked out at 80 nM; against human KHK-A, 130 nM. In addition, in experiment [1], the concentration giving a half-maximal response (EC50) was found to be 2510 nM.

One may read the IC50 as the concentration at which inhibition is half-maximal. A low value points to greater potency in that assay. For orientation: EC50 means the concentration needed to bring the measured effect to its halfway point. Low readings indicate an effect from little substance, high ones a need for much substance.
